Measurements published in patent US8658644B2, “Pyridazine derivatives, processes for their preparation and their use as fungicides” (Syngenta Crop Protection, LLC, priority 2011, dated 2014).

Key:
[1] = test system: Mycosphaerella graminicola (Septoria tritici); experiment: Mycosphaerella graminicola (Septoria tritici) / wheat / preventive; assay type: in vivo; settings: Zymoseptoria tritici, wheat plants cv. Riband, inoculated one day after application, leaf area covered by disease 16 to 19 days after application, read-out: inhibited fungal infestation
Procedure: Mycosphaerella graminicola (Septoria tritici)/Wheat/Preventive (Action Against Septoria Leaf Spot on Wheat) 2-week old wheat plants cv. Riband were treated with the formulated test compound in a spray chamber. The test plants were inoculated by spraying a spore suspension on them one day after application. After an incubation period of 1 day at 22° C./21° C. (day/night) and 95% rh, the test plants were kept at 22° C./21° C. (day/night) and 70% rh in a greenhouse. The percentage leaf area covered by disease is assessed when an appropriate level of disease appears on untreated check plants (16 to 19 days after application).

Alternaria Solani = experiment: Alternaria solani / tomato / preventative; assay type: in vivo; settings: tomato plants cv. Roter Gnom, inoculated two days after application, leaf area covered by disease 5 to 7 days after application, read-out: inhibited fungal infestation
Procedure: (§1) Alternaria Solani/Tomato/Preventative (Action Against Alternaria on Tomato) 4-week old tomato plants cv. Roter Gnom were treated with the formulated test compound in a spray chamber. The test plants were inoculated by spraying them with a spore suspension two days after application. The inoculated test plants were incubated at 22/18° C. (day/night) and 95% rh in a greenhouse and the percentage leaf area covered by disease was assessed when an appropriate level of disease appears on untreated check plants (5 to 7 days after application).

[2] = test system: Pyrenophora teres (Helminthosporium teres); experiment: Pyrenophora teres (Helminthosporium teres) / barley / preventative; assay type: in vivo; settings: barley plants cv. Regina, inoculated 2 days after application, leaf area covered by disease 5 to 7 days after application, read-out: inhibited fungal infestation
Procedure: Pyrenophora teres (Helminthosporium teres)/Barley/Preventative (Action Against Net Blotch on Barley) 1-week old barley plants cv. Regina were treated with the formulated test compound in a spray chamber. The test plants were inoculated by spraying them with a spore suspension 2 days after application. The inoculated test plants were incubated at 20° C. and 95% rh and the percentage leaf area covered by disease was assessed when an appropriate level of disease appears on untreated check plants (5 to 7 days after application).

[3] = test system: Mycosphaerella graminicola (Septoria tritici); experiment: Mycosphaerella graminicola (Septoria tritici) / wheat / curative; assay type: in vivo; settings: Zymoseptoria tritici, wheat plants cv. Riband, treated 5 days after inoculation, leaf area covered by disease 11 to 14 days after application, read-out: inhibited fungal infestation
Procedure: Mycosphaerella graminicola (Septoria tritici)/Wheat/Curative (Action Against Septoria Leaf Spot on Wheat) 2-week old wheat plants cv. Riband are inoculated by spraying them with a spore suspension. After an incubation period of 2 days at 22° C./21° C. (day/night) and 95% rh, the test plants are kept at 22° C./21° C. (day/night) and 70% rh in a climate chamber. The inoculated test plants are treated with the formulated test compound in a spray chamber 5 days after inoculation. The percentage leaf area covered by disease is assessed when an appropriate level of disease appears on untreated check plants (11 to 14 days after application).

[4] = test system: Magnaporthe grisea (Pyricularia oryzae); experiment: whole plant or invertebrate; assay type: in vivo; settings: read-out: inhibited fungal infestation
[5] = test system: Erysiphe necator (Uncinula necator); experiment: Erysiphe necator (Uncinula necator) / grape / preventative; assay type: in vivo; settings: grape seedlings cv. Gutedel, inoculated 1 day after application, leaf area covered by disease 7 to 9 days after application, read-out: inhibited fungal infestation
Procedure: Erysiphe necator (Uncinula necator)/Grape/Preventative (Action Against Powdery Mildew on Grape) 5-week old grape seedlings cv. Gutedel were treated with the formulated test compound in a spray chamber. The test plants are inoculated by shaking plants infected with grape powdery mildew above them 1 day after application. The inoculated test plants were incubated at 24/22° C. (day/night) and 70% rh under a light regime of 14/10 h (light/dark) and the percentage leaf area covered by disease was assessed when an appropriate level of disease appears on untreated check plants (7 to 9 days after application).

[6] = test system: Botryotinia fuckeliana (Botrytis cinerea); experiment: Botryotinia fuckeliana (Botrytis cinerea) / tomato / preventative; assay type: in vivo; settings: tomato plants cv. Roter Gnom, inoculated two days after application, leaf area covered by disease 5 to 6 days after application, read-out: inhibited fungal infestation
Procedure: as §1, with “Botryotinia fuckeliana (Botrytis cinerea)/Tomato/Preventative” for “Alternaria Solani/Tomato/Preventative”, “Botrytis” for “Alternaria”, “20°” for “22/18°”, “C.” for “C. (day/night)”, “is” for “was”, “6” for “7”

Puccinia recondita = Puccinia recondita / wheat / preventative; assay type: in vivo; settings: wheat plants cv. Arina, inoculated one day after application, leaf area covered by disease 12 to 14 days after application, read-out: inhibited fungal infestation
Procedure: Puccinia recondita/Wheat/Preventative (Action Against Brown Rust on Wheat) 2-week old wheat plants cv. Arina were treated with the formulated test compound in a spray chamber. The test plants were inoculated by spraying them with a spore suspension one day after application. After an incubation period of 1 day at 20° C. and 95% rh, the test plants were kept at 20° C./18° C. (day/night) and 60% rh in a greenhouse. The percentage leaf area covered by disease was assessed when an appropriate level of disease appears on untreated check plants (12 to 14 days after application).

SMILES | melting point [°C] | inhibition at 200 ppm [1] [%] | inhibition at 200 ppm (Alternaria Solani) [%] | inhibition at 200 ppm [2] [%] | inhibition at 200 ppm [3] [%] | inhibition at 200 ppm [4] [%] | inhibition at 200 ppm [5] [%] | inhibition at 200 ppm [6] [%] | inhibition at 200 ppm (Puccinia recondita) [%]
C#Cc1ccc(-c2c(C)n[nH]c(=O)c2-c2c(F)cc(F)cc2F)cc1 [Compound 1, 5-(4-ethynylphenyl)-6-methyl-4-(2,4,6-trifluorophenyl)-2H-pyridazin-3-one] | 252 to 254 |  |  |  |  |  |  |  | 
C#Cc1ccc(-c2c(C)nnc(Cl)c2-c2c(F)cc(F)cc2F)cc1 [Compound 2, 3-chloro-5-(4-ethynylphenyl)-6-methyl-4-(2,4,6-trifluorophenyl)pyridazine] | 174 to 175 | ≥ 80 | ≥ 80 | ≥ 80 | ≥ 80 | ≥ 80 | ≥ 80 | ≥ 80 | ≥ 80
C#Cc1ccc(-c2c(C)nnc(OC)c2-c2c(F)cc(OC)cc2F)cc1 [Compound 4, 4-(2,6-difluoro-4-methoxyphenyl)-5-(4-ethynylphenyl)-3-methoxy-6-methylpyridazine] | 192 to 193 | ≥ 80 | ≥ 80 | ≥ 80 | ≥ 80 | ≥ 80 |  | ≥ 80 | 
